# Biological target: Epidermal growth factor receptor (Homo sapiens, UniProt P00533)
# Assay: Inhibition of the tyrosine kinase activity of the human epidermal growth factor receptor (EGFR)
# Sequence of Epidermal growth factor receptor (P00533 whole entry): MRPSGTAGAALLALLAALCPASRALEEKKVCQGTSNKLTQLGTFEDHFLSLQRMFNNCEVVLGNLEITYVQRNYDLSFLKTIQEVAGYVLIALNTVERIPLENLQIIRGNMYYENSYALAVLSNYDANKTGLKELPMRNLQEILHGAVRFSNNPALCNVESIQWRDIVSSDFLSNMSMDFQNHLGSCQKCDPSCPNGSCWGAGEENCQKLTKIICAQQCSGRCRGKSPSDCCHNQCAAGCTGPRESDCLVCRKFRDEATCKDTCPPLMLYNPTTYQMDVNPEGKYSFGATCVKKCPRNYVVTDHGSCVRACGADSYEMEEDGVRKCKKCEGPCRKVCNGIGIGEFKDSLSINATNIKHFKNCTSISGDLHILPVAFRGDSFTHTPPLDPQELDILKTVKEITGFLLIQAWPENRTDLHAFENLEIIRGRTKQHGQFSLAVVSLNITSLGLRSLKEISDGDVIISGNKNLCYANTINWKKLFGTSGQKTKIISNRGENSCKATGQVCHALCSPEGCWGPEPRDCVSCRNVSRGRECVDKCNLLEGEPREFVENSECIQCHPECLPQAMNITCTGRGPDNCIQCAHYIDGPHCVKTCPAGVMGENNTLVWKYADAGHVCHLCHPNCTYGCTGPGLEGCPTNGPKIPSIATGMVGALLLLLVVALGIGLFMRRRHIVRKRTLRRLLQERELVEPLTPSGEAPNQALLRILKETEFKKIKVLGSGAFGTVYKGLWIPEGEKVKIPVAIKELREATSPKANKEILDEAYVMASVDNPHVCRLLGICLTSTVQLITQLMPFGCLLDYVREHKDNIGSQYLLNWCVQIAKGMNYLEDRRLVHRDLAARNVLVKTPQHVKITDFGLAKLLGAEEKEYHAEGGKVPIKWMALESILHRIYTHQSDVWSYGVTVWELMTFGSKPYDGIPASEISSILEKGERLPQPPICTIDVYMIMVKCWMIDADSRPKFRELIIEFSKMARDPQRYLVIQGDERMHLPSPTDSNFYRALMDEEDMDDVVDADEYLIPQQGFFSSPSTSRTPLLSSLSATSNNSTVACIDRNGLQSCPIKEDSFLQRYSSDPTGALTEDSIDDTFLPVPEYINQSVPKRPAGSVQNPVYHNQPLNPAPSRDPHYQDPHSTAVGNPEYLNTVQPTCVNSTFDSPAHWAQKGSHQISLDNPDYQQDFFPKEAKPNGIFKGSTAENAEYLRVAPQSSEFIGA
row,Compound,IC50 [µM]
1,O=C(CCc1c(SSc2[nH]c3ccccc3c2CCC(=O)NCCc2ccccc2)[nH]c2ccccc12)NCCc1ccccc1,24
2,COC(=O)c1ccc(CNC(=O)CCc2c(SSc3[nH]c4ccccc4c3CCC(=O)NCc3ccc(C(=O)OC)c(O)c3)[nH]c3ccccc23)cc1O,100
3,O=C(CCC1C(=S)Nc2ccccc21)NCc1ccccc1 (configuration not stated),100
4,O=C(CCc1c(SSc2[nH]c3ccccc3c2CCC(=O)NCc2ccc(C(=O)O)cc2)[nH]c2ccccc12)NCc1ccc(C(=O)O)cc1,7.4
5,O=C(CC1C(=S)Nc2ccccc21)NCc1ccccc1 (configuration not stated),100
6,O=C(CCCc1c(SSc2[nH]c3ccccc3c2CCCC(=O)NCc2ccccc2)[nH]c2ccccc12)NCc1ccccc1,100
7,O=C(CCc1c(SSc2[nH]c3ccccc3c2CCC(=O)Nc2ccccc2)[nH]c2ccccc12)Nc1ccccc1,25
8,N#CCCc1c(SSc2[nH]c3ccccc3c2CCC#N)[nH]c2ccccc12,47
9,O=C(NCc1ccccc1)C(O)Cc1c(SSc2[nH]c3ccccc3c2CC(O)C(=O)NCc2ccccc2)[nH]c2ccccc12 (configuration not stated),14
10,O=[N+]([O-])CCc1c(SSc2[nH]c3ccccc3c2CC[N+](=O)[O-])[nH]c2ccccc12,89
11,NC(Cc1c(SSc2[nH]c3ccccc3c2CC(N)C(=O)NCc2ccccc2)[nH]c2ccccc12)C(=O)NCc1ccccc1 (configuration not stated),7.6
12,CNC(=O)CCc1c(SSc2[nH]c3ccccc3c2CCC(=O)NC)[nH]c2ccccc12,9.4
13,CC(=O)NC(Cc1c(SSc2[nH]c3ccccc3c2CC(NC(C)=O)C(=O)NCc2ccccc2)[nH]c2ccccc12)C(=O)NCc1ccccc1 (configuration not stated),51
14,O=C(CCc1c(SSc2[nH]c3ccccc3c2CCC(=O)NCc2ccc(C(=O)O)c(O)c2)[nH]c2ccccc12)NCc1ccc(C(=O)O)c(O)c1,8.5
15,N#CCc1c(SSc2[nH]c3ccccc3c2CC#N)[nH]c2ccccc12,32
16,CC(=O)OC(Cc1c(SSc2[nH]c3ccccc3c2CC(OC(C)=O)C(=O)NCc2ccccc2)[nH]c2ccccc12)C(=O)NCc1ccccc1 (configuration not stated),28
17,O=C(NCc1ccccc1)C(Cc1c(SSc2[nH]c3ccccc3c2CC(NC(=O)C(F)(F)F)C(=O)NCc2ccccc2)[nH]c2ccccc12)NC(=O)C(F)(F)F (configuration not stated),> 100
18,CN(C)C(=O)CCc1c(SSc2[nH]c3ccccc3c2CCC(=O)N(C)C)[nH]c2ccccc12,12

# System: NIH3T3
# Assay: Compound was tested for the concentration necessary to inhibit swiss 3T3 Mouse Fibroblast cell growth rate by 50%.
# Assay type: functional, cell-based
row,Compound,IC50 [µM]
1,O=C(CCc1c(SSc2[nH]c3ccccc3c2CCC(=O)NCc2ccccc2)[nH]c2ccccc12)NCc1ccccc1,5.9
2,NC(Cc1c(SSc2[nH]c3ccccc3c2CC(N)C(=O)NCc2ccccc2)[nH]c2ccccc12)C(=O)NCc1ccccc1 (configuration not stated),5.3
3,O=C(Cc1c(SSc2[nH]c3ccccc3c2CC(=O)NCc2ccccc2)[nH]c2ccccc12)NCc1ccccc1,2.7
4,O=C(O)CCc1c(SSc2[nH]c3ccccc3c2CCC(=O)O)[nH]c2ccccc12,60

# Reference: ChEMBL document CHEMBL1127622, “Tyrosine kinase inhibitors. 2. Synthesis of 2,2'-dithiobis(1H-indole-3-alkanamides) and investigation of their inhibitory activity against epidermal growth factor receptor and pp60v-src protein tyrosine kinases” (J Med Chem, 1994)
